Molecular target: T1, CDK2 (Homo sapiens, UniProt P24941)
T1 construct: endogenous in cells; host or cells: OVCAR3 cells
Assay: Phospho-RB measurement in OVCAR3 cells (HTRF phospho-RB cellular kit)
Type: cell-based
Conditions: inhibition of RB phosphorylation at S807/811 (HTRF, TR-FRET ratio 665/620), 24 h compound treatment, 0.3 to 10,000 nM
Summary of the method: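 IC50 came from a four-parameter logistic fit of the DMSO-normalized TR-FRET ratio (665/620 nm). That ratio reflects RB phosphorylation at S807/811, read with an HTRF antibody pair 4 h after adding lysate at room temperature.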

Row | Structure (SMILES) | IC50 [nM]
1 | CCOc1cccc2c1CN(S(=O)(=O)Nc1cccc(-c3nc(C(C)(C)C)sc3-c3ccnc(NC4CC5(C4)CS(=O)(=O)C5)n3)c1F)C2 [Example 204, N-(3-(2-(tert-butyl)-5-(2-((2,2-dioxido-2-thiaspiro[3.3]heptan-6-yl)amino)-pyrimidin-4-yl)thiazol-4-yl)-2-fluoro-phenyl)-4-ethoxyisoindoline-2-sulfonamide] | 69.2
2 | CC(C)(C)c1nc(-c2cccc(NS(=O)(=O)N3Cc4cccc(OC(F)F)c4C3)c2F)c(-c2ccnc(NC3CC4(C3)CS(=O)(=O)C4)n2)s1 [Example 205, N-(3-(2-(tert-butyl)-5-(2-((2,2-dioxido-2-thiaspiro[3.3]heptan-6-yl)amino)-pyrimidin-4-yl)thiazol-4-yl)-2-fluorophenyl)-4-(difluoromethoxy)-isoindoline-2-sulfonamide] | 40.4
3 | CN(C)c1cccc2c1CN(S(=O)(=O)Nc1cccc(-c3nc(C(C)(C)C)sc3-c3ccnc(NC4CC5(C4)CS(=O)(=O)C5)n3)c1F)C2 [Example 206, N-(3-(2-(tert-butyl)-S-(2-((2,2-dioxido-2-thiaspiro[3.3]heptan-6-yl)amino)-pyrimidin-4-yl)thiazol-4-yl)-2-fluoro-phenyl)-4-(dimethylamino) isoindoline-2-sulfonamide] | 619
4 | CNc1cccc2c1CN(S(=O)(=O)Nc1cccc(-c3nc(C(C)(C)C)sc3-c3ccnc(NC4CC5(C4)CS(=O)(=O)C5)n3)c1F)C2 [Example 207, N-(3-(2-(tert-butyl)-5-(2-((2,2-dioxido-2-thiaspiro[3.3]heptan-6-yl)amino)-pyrimidin-4-yl)thiazol-4-yl)-2-fluorophenyl)-4-(methylamino)-isoindoline-2-sulfonamide] | 199
5 | CC(C)(C)c1nc(-c2cccc(NS(=O)(=O)N3Cc4ccccc4C3c3ccccc3)c2F)c(-c2ccnc(NC3CC4(C3)CS(=O)(=O)C4)n2)s1 (stereo not shown) [Example 208, N-(3-(2-(tert-butyl)-5-(2-((2,2-dioxido-2-thiaspiro[3.3]heptan-6-yl)amino)-pyrimidin-4-yl)thiazol-4-yl)-2-fluoro-phenyl)-1-phenylisoindoline-2-sulfonamide] | 3690
6 | CC1(c2nc(-c3cccc(NS(=O)(=O)N4Cc5ccncc5C4)c3F)c(-c3ccnc(NC4CC5(C4)CS(=O)(=O)C5)n3)s2)CCOCC1 [Example 209, N-(3-(5-(2-((2,2-dioxido-2-thiaspiro-[3.3]-heptan-6-yl)amino)pyrimidin-4-yl)-2-(4-methyltetrahydro-2H-pyran-4-yl)thiazol-4-yl)-2-fluorophenyl)-1,3-dihydro-2H-pyrrolo [3,4-c]-pyridine-2-sulfonamide] | 350
7 | CC(C)(C)c1nc(-c2cccc(NS(=O)(=O)N3Cc4cccc(Oc5ccccc5)c4C3)c2F)c(-c2ccnc(NC3CC4(C3)CS(=O)(=O)C4)n2)s1 [Example 210, N-(3-(2-(tert-butyl)-5-(2-((2,2-dioxido-2-thiaspiro[3.3]heptan-6-yl)amino)-pyrimidin-4-yl)thiazol-4-yl)-2-fluoro-phenyl)-4-phenoxy-isoindoline-2-sulfonamide] | 505
8 | CC(C)(C)c1nc(-c2cccc(NS(=O)(=O)N3Cc4cccc(Oc5ccccc5)c4C3)c2F)c(-c2ccnc(NC3CCN(S(C)(=O)=O)CC3)n2)s1 [Example 211, N-(3-(2-(tert-butyl)-5-(2-((1-(methylsulfonyl)-piperidin-4-yl)amino)-pyrimidin-4-yl)thiazol-4-yl)-2-fluoro-phenyl)-4-phenoxyisoindoline-2-sulfonamide] | 613
9 | O=S1(=O)CC2(CC(Nc3nccc(-c4sc(N5C6CCC5COC6)nc4-c4cccc(NS(=O)(=O)N5Cc6ccncc6C5)c4F)n3)C2)C1 [Example 212, N-(3-(2-(3-oxa-8-azabicyclo [3.2.1]octan-8-yl)-5-(2-((2,2-dioxido-2-thiaspiro-[3.3]heptan-6-yl)amino)pyrimidin-4-yl)thiazol-4-yl)-2-fluorophenyl)-1,3-dihydro-2H-pyrrolo [3,4-c]-pyridine-2-sulfonamide] | 662
10 | CC(C)(C)c1nc(-c2cccc(NS(=O)(=O)N3Cc4ccccc4C3Cc3ccccc3)c2F)c(-c2ccnc(NC3CCN(S(C)(=O)=O)CC3)n2)s1 (stereo not shown) [Example 213, 1-benzyl-N-(3-(2-(tert-butyl)-5-(2-((1-(methylsulfonyl)piperidin-4-yl)amino)-pyrimidin-4-yl)thiazol-4-yl)-2-fluoro-phenyl)-isoindoline-2-sulfonamide] | 3300
11 | CC(C)(C)c1nc(-c2cccc(NS(=O)(=O)N3Cc4cccc(Oc5cccc(F)c5)c4C3)c2F)c(-c2ccnc(NC3CC4(C3)CS(=O)(=O)C4)n2)s1 [Example 214, N-(3-(2-(tert-butyl)-5-(2-((2,2-dioxido-2-thiaspiro[3.3]heptan-6-yl)amino)-pyrimidin-4-yl)thiazol-4-yl)-2-fluorophenyl)-4-(3-fluorophenoxy)-isoindoline-2-sulfonamide] | 535
12 | CC(C)(C)c1nc(-c2cccc(NS(=O)(=O)N3Cc4cccc(Oc5ccc(F)cc5)c4C3)c2F)c(-c2ccnc(NC3CC4(C3)CS(=O)(=O)C4)n2)s1 [Example 215, N-(3-(2-(tert-butyl)-5-(2-((2,2-dioxido-2-thiaspiro[3.3]heptan-6-yl)amino)-pyrimidin-4-yl)thiazol-4-yl)-2-fluoro-phenyl)-4-(4-fluoro-phenoxy)-isoindoline-2-sulfonamide] | 601
13 | CC(C)(C)c1nc(-c2cccc(NS(=O)(=O)N3CCc4c(CO)cccc43)c2F)c(-c2ccnc(NC3CC4(C3)CS(=O)(=O)C4)n2)s1 [Example 216, N-(3-(2-(tert-butyl)-5-(2-((2,2-dioxido-2-thiaspiro[3.3]heptan-6-yl)amino)-pyrimidin-4-yl)thiazol-4-yl)-2-fluoro-phenyl)-4-(hydroxymethyl) indoline-1-sulfonamide] | 65.4
14 | CC(C)(C)c1nc(-c2cccc(NS(=O)(=O)N3CCc4ccc(-c5ccccc5)cc43)c2F)c(-c2ccnc(NC3CC4(C3)CS(=O)(=O)C4)n2)s1 [Example 217, N-(3-(2-(tert-butyl)-5-(2-((2,2-dioxido-2-thiaspiro[3.3]heptan-6-yl)amino)-pyrimidin-4-yl)thiazol-4-yl)-2-fluoro-phenyl)-6-phenyl-indoline-1-sulfonamide] | 934
15 | CC(C)(C)c1nc(-c2cccc(NS(=O)(=O)N3CCc4ccc(-c5ccccc5)cc43)c2F)c(-c2ccnc(NC3CCN(S(C)(=O)=O)CC3)n2)s1 [Example 218, N-(3-(2-(tert-butyl)-5-(2-((1-(methylsulfonyl)-piperidin-4-yl)amino)-pyrimidin-4-yl)thiazol-4-yl)-2-fluoro-phenyl)-6-phenylindoline-1-sulfonamide] | 1300
16 | CC(C)(C)c1nc(-c2cccc(NS(=O)(=O)N3Cc4cccc(Oc5ccccc5C#N)c4C3)c2F)c(-c2ccnc(NC3CC4(C3)CS(=O)(=O)C4)n2)s1 [Example 219, N-(3-(2-(tert-butyl)-5-(2-((2,2-dioxido-2-thiaspiro[3.3]heptan-6-yl)amino)-pyrimidin-4-yl)thiazol-4-yl)-2-fluorophenyl)-4-(2-cyanophenoxy)-isoindoline-2-sulfonamide] | 583
17 | Cn1c(-c2ccc3c(c2)N(S(=O)(=O)Nc2cccc(-c4nc(C(C)(C)C)sc4-c4ccnc(NC5CC6(C5)CS(=O)(=O)C6)n4)c2F)CC3)cccc1=O [Example 220, N-(3-(2-(tert-butyl)-5-(2-((2,2-dioxido-2-thiaspiro[3.3]heptan-6-yl)amino)-pyrimidin-4-yl)thiazol-4-yl)-2-fluoro-phenyl)-6-(1-methyl-6-oxo-1,6-dihydropyridin-2-yl)indoline-1-sulfonamide] | 802
18 | COc1cccc2c1CN(S(=O)(=O)Nc1cccc(-c3nc(C(C)(C)C)sc3-c3ccnc(N[C@H]4[C@@H]5CS(=O)(=O)C[C@@H]54)n3)c1F)C2 [Example 221, N-(3-(2-(tert-butyl)-5-(2-(((1R,5S,6r)-3,3-dioxido-3-thiabicyclo [3.1.0]hexan-6-yl)amino)pyrimidin-4-yl)thiazol-4-yl)-2-fluorophenyl)-4-methoxyisoindoline-2-sulfonamide] | 35.5
19 | CC(C)(C)c1nc(-c2cccc(NS(=O)(=O)N3Cc4ccncc4C3)c2F)c(-c2ccnc(N[C@H]3[C@@H]4CS(=O)(=O)C[C@@H]43)n2)s1 [Example 222, N-(3-(2-(tert-butyl)-5-(2-(((1R,5S,6r)-3,3-dioxido-3-thiabicyclo[3.1.0]hexan-6-yl)amino)pyrimidin-4-yl)thiazol-4-yl)-2-fluorophenyl)-1,3-dihydro-2H-pyrrolo[3,4-c]-pyridine-2-sulfonamide] | 152
20 | CC(C)(C)c1nc(-c2cccc(NS(=O)(=O)N3CCc4ccc(C#N)cc43)c2F)c(-c2ccnc(N[C@H]3[C@@H]4CS(=O)(=O)C[C@@H]43)n2)s1 [Example 223, N-(3-(2-(tert-butyl)-5-(2-(((1R,5S,6r)-3,3-dioxido-3-thiabicyclo [3.1.0]hexan-6-yl)amino)pyrimidin-4-yl)thiazol-4-yl)-2-fluorophenyl)-6-cyanoindoline-1-sulfonamide] | 89
21 | CC(C)(C)c1nc(-c2cccc(NS(=O)(=O)N3Cc4cccc(-c5ccccc5)c4C3)c2F)c(-c2ccnc(NC3CCN(S(C)(=O)=O)CC3)n2)s1 [Example 224, N-(3-(2-(tert-butyl)-5-(2-((1-(methylsulfonyl)-piperidin-4-yl)amino)-pyrimidin-4-yl)thiazol-4-yl)-2-fluoro-phenyl)-4-phenylisoindoline-2-sulfonamide] | 300
22 | CC(C)(C)c1nc(-c2cccc(NS(=O)(=O)N3CCc4ccc(C#N)cc43)c2F)c(-c2ccnc(Nc3ccc(N4CCNCC4)cc3)n2)s1 [Example 225, N-(3-(2-(tert-butyl)-5-(2-((4-(piperazin-1-yl)phenyl)amino)pyrimidin-4-yl)-thiazol-4-yl)-2-fluorophenyl)-6-cyano-indoline-1-sulfonamide] | 456
